# Reference: PubChem BioAssay (NCI)
# Where “and” joins values, the source holds several entries; their conditions need not be identical. Identical values can stand only once.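 Compound exposure: 48 hours, 5 concentrations, 96-well plates. GI50 = concentration required for 50% inhibition of growth. The concentration for full growth arrest is given as TGI.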
# How the values were obtained:
# Assay in all cases: inhibition of tumour cell growth, NCI panel, 48 h
# [1] = system: 786-0 renal
# [2] = system: A498 renal
# [3] = system: A549 NSCLC
# [4] = system: ACHN renal
# [5] = system: CAKI-1 renal
# [6] = system: CCRF-CEM leukemia
# [7] = system: COLO 205 colon
# [8] = system: DU-145 prostate
# [9] = system: EKVX NSCLC
# [10] = system: HCC-2998 colon
# [11] = system: HCT-116 colon
# [12] = system: HCT-15 colon
# [13] = system: HL-60(TB) leukemia
# [14] = system: HOP-62 NSCLC
# [15] = system: HOP-92 NSCLC
# [16] = system: HS 578T breast
# [17] = system: HT29 colon
# [18] = system: IGROV1 ovarian
# [19] = system: K-562 leukemia
# [20] = system: KM12 colon
# [21] = system: LOX IMVI melanoma
# [22] = system: M14 melanoma
# [23] = system: MCF7 breast
# [24] = system: MDA-MB-231 breast
# [25] = system: MDA-MB-435
# [26] = system: MOLT-4 leukemia
# [27] = system: NCI-H23 lung
# [28] = system: NCI-H460 lung
# [29] = system: NCI-H522 lung
# [30] = system: NCI/ADR-RES ovarian
# [31] = system: OVCAR-3 ovarian
# [32] = system: OVCAR-4 ovarian
# [33] = system: OVCAR-5 ovarian
# [34] = system: OVCAR-8 ovarian
# [35] = system: PC-3 prostate
# [36] = system: RPMI-8226 leukemia
# [37] = system: SF-268 CNS
# [38] = system: SF-295 CNS
# [39] = system: SF-539 CNS
# [40] = system: SK-MEL-2 melanoma
# [41] = system: SK-MEL-28 melanoma
# [42] = system: SK-MEL-5 melanoma
# [43] = system: SK-OV-3 ovarian
# [44] = system: SNB-19 CNS
# [45] = system: SNB-75 CNS
# [46] = system: SR leukemia
# [47] = system: SW-620 colon
# [48] = system: T-47D breast
# [49] = system: U251 CNS
# [50] = system: UO-31 renal
# [51] = system: BT-549 breast
# [52] = system: MALME-3M melanoma
# [53] = system: SN12C renal
# [54] = system: TK-10 renal
# [55] = system: UACC-257 melanoma
# [56] = system: UACC-62 melanoma
smiles,measurement,setting,value
Cc1cc2nc3ccc(N=Nc4ccc(N(C)C)cc4)cc3n(-c3ccccc3)c-2cc1=N,GI50,[1],77.8 nM
same,TGI,[1],505 nM
same,GI50,[2],30.8 nM
same,TGI,[2],1090 nM
same,GI50,[3],8.94 nM
same,TGI,[3],264 nM
same,GI50,[4],23.3 nM and 210 nM
same,GI50,[5],36.9 nM
same,TGI,[5],1070 nM
same,GI50,[6],8.58 nM and 16.2 nM
same,TGI,[6],203 nM and 141 nM
same,GI50,[7],3.43 nM
same,TGI,[7],21.6 nM
same,GI50,[8],20.8 nM
same,TGI,[8],123 nM
same,GI50,[9],23 nM
same,TGI,[9],212 nM
same,GI50,[10],43.1 nM
same,TGI,[10],1600 nM
same,GI50,[11],17.7 nM
same,TGI,[11],116 nM
same,GI50,[12],27.3 nM and 177 nM
same,TGI,[12],259 nM and 1310 nM
same,GI50,[13],3.34 nM and 11.9 nM
same,GI50,[14],40.6 nM
same,TGI,[14],1750 nM
same,GI50,[15],32.5 nM
same,TGI,[15],386 nM
same,GI50,[16],16.8 nM
same,TGI,[16],81.6 nM
same,GI50,[17],49.7 nM
same,TGI,[17],1150 nM
same,GI50,[18],22.1 nM and 32.8 nM
same,GI50,[19],6.86 nM
same,GI50,[20],17.4 nM
same,TGI,[20],116 nM
same,GI50,[21],25.9 nM
same,TGI,[21],117 nM
same,GI50,[22],65.7 nM
same,TGI,[22],239 nM
same,GI50,[23],1.99 nM
same,TGI,[23],14.3 nM
same,GI50,[24],74 nM
same,TGI,[24],466 nM
same,GI50,[25],40.2 nM
same,TGI,[25],165 nM
same,GI50,[26],14.6 nM
same,TGI,[26],1920 nM
same,GI50,[27],25.3 nM
same,TGI,[27],418 nM
same,GI50,[28],14.6 nM
same,TGI,[28],52.7 nM
same,GI50,[29],19.9 nM and 147 nM
same,GI50,[30],279 nM
same,TGI,[30],3130 nM
same,GI50,[31],12.1 nM
same,TGI,[31],39 nM
same,GI50,[32],11.6 nM and 41.5 nM
same,TGI,[32],120 nM and 802 nM
same,GI50,[33],48.6 nM
same,TGI,[33],1550 nM
same,GI50,[34],23.2 nM and 41.4 nM
same,GI50,[35],14.3 nM
same,TGI,[35],183 nM
same,GI50,[36],2.54 nM
same,TGI,[36],20 nM
same,GI50,[37],33.2 nM
same,TGI,[37],260 nM
same,GI50,[38],15.4 nM and 31.4 nM
same,GI50,[39],22.6 nM
same,TGI,[39],153 nM
same,GI50,[40],58 nM
same,TGI,[40],317 nM
same,GI50,[41],57.3 nM
same,TGI,[41],241 nM
same,GI50,[42],23.5 nM
same,TGI,[42],143 nM
same,GI50,[43],30.5 nM
same,TGI,[43],187 nM
same,GI50,[44],21.2 nM and 73.1 nM
same,TGI,[44],1080 nM and 1610 nM
same,GI50,[45],50 nM
same,TGI,[45],1250 nM
same,GI50,[46],20.8 nM
same,TGI,[46],394 nM
same,GI50,[47],22.1 nM
same,TGI,[47],120 nM
same,GI50,[48],2.96 nM
same,TGI,[48],70.6 nM
same,GI50,[49],18.3 nM
same,TGI,[49],114 nM
same,GI50,[50],33.3 nM
same,TGI,[50],820 nM
NCCCn1c2c(c3ccc([N+](=O)[O-])cc3c1=O)C(=O)c1cc3c(cc1-2)OCO3,GI50,[4],< 10 nM
same,GI50,[51],164 nM
same,TGI,[51],1760 nM
same,GI50,[5],< 10 nM
same,TGI,[5],491 nM
same,GI50,[6],16.4 nM
same,TGI,[6],> 100000 nM
same,GI50,[8],< 10 nM
same,TGI,[8],1480 nM
same,GI50,[11],> 100000 nM
same,TGI,[11],> 100000 nM
same,GI50,[12],28.2 nM
same,TGI,[12],201 nM
same,GI50,[13],< 15.5 nM
same,GI50,[14],1430 nM
same,TGI,[14],> 100000 nM
same,GI50,[15],2600 nM
same,TGI,[15],11100 nM
same,GI50,[17],148 nM
same,TGI,[17],> 100000 nM
same,GI50,[18],478 nM
same,TGI,[18],> 100000 nM
same,GI50,[19],58.1 nM
same,GI50,[20],321 nM
same,TGI,[20],4420 nM
same,GI50,[21],< 10 nM
same,TGI,[21],121 nM
same,GI50,[52],488 nM
same,TGI,[52],2820 nM
same,GI50,[24],440 nM
same,TGI,[24],935 nM
same,GI50,[25],592 nM
same,TGI,[25],3280 nM
same,GI50,[26],< 10 nM
same,TGI,[26],> 100000 nM
same,GI50,[27],22.8 nM
same,TGI,[27],1140 nM
same,GI50,[31],886 nM
same,TGI,[31],3210 nM
same,GI50,[34],106 nM
same,TGI,[34],402 nM
same,GI50,[35],1170 nM
same,TGI,[35],3560 nM
same,GI50,[36],< 17 nM
same,TGI,[36],2140 nM
same,GI50,[42],27.3 nM
same,TGI,[42],247 nM
same,GI50,[43],320 nM
same,GI50,[53],< 10 nM
same,TGI,[53],385 nM
same,GI50,[46],22.5 nM
same,TGI,[46],> 100000 nM
same,GI50,[54],1830 nM
same,TGI,[54],4980 nM
same,GI50,[55],372 nM
same,TGI,[55],3000 nM
same,GI50,[56],28.8 nM
same,TGI,[56],1650 nM
same,GI50,[50],< 10 nM
same,TGI,[50],200 nM
O=C1NC(=O)c2c1c1c3ccccc3ccc1c1[nH]c3ccc(Br)cc3c21,GI50,[6],1220 nM
same,TGI,[6],> 100000 nM
same,GI50,[13],1750 nM
same,TGI,[13],6290 nM
same,GI50,[19],789 nM
same,TGI,[19],> 100000 nM
same,GI50,[25],1660 nM
same,TGI,[25],3740 nM
same,GI50,[26],1190 nM
same,TGI,[26],4030 nM
same,GI50,[27],1460 nM
same,TGI,[27],4480 nM
same,GI50,[30],1530 nM
same,TGI,[30],5630 nM
same,GI50,[32],1740 nM
same,TGI,[32],4850 nM
same,GI50,[34],2330 nM
same,TGI,[34],> 100000 nM
same,GI50,[36],501 nM
same,TGI,[36],2870 nM
same,GI50,[42],1560 nM
same,TGI,[42],2940 nM
same,GI50,[54],2450 nM
same,TGI,[54],> 100000 nM
same,GI50,[56],1910 nM
same,TGI,[56],3870 nM
